Laboratory results published in patent US8927767B2, “Crystalline polymorphs of acetyl-glycine-beta-alanine and process of making the same” (Corum Inc., priority 2013, dated 2015).

Tests used:
[1] = Thermal stability study by powder X-ray diffraction; type: physicochemical; details: 140° C. oven with air circulation for 4 hours
Description: (§1) The procedure of powder X-ray diffraction test used for obtaining FIG. 1, FIG. 2, FIG. 7 and FIG. 8 is described as follows:
(§2) The crystalline polymorphs of acetyl-glycine-beta-alanine was analyzed by an X-ray powder Diffractometer, Bruker D8 Advanced, equipped with a Cu anode (λ=1.540600 Angstrom). X-ray source operated at 40 kV, 40 mA. The measuring 2-theta range was from about 5 to 60 degree and step width was 0.05 degree.
Thermal Stability Study for Both of Crystalline Polymorph A and Crystalline Polymorph B of Acetyl-Glycine-Beta-Alanine:
The crystalline polymorph A of acetyl-glycine-beta-alanine and crystalline polymorph B of acetyl-glycine-beta-alanine were stored at 140° C. oven with air circulation for 4 hours, and then analyzed with powder X-ray diffraction.

[2] = Solubility study in different solvents (HPLC); type: physicochemical; details: for Solubility: room temperature, 30 min
Description: The Solubility Study of Crystalline Polymorph A and Polymorph B of Acetyl-Glycine-Beta-Alanine
According to the theory of thermodynamic of polymorphism, the most thermodynamic stable crystalline polymorph has lowest solubility. The solubility of both of the crystalline polymorph A and polymorph B of acetyl-glycine-beta-alanine were measured in different solvents.
The solubility measurement procedure was described as the following. Prepared a saturated acetyl-glycine-beta-alanine solution with 1 gram of test solvents and then stir it for 30 min at room temperature. Collected the solution through a filter and used HPLC to analyze its solubility. The solubility was represented by mg of the polymorphs/grams of the solvent.

[3] = Thermodynamic stable crystalline polymorph study: slurry equilibrium; type: physicochemical; details: 5 g polymorph A + 5 g polymorph B in isopropanol/water 100 g/10 g; 40 to 45° C. 8 hours, then 25 to 30° C. 48 hours
Description: Thermodynamic Stable Crystalline Polymorph Study: Slurry Equilibrium
Both of 5 grams of crystalline polymorph A and 5 grams of crystalline polymorph B of acetyl-glycine-beta-alanine were put into a flask. 100 grams of isopropanol and 10 grams of water were added into the flask to form a mixture. The mixture was stirred at 40 to 45° C. for 8 hours and then at 25 to 30° C. for 48 hours. The mixture was cooled to 15 to 20° C. and the crystalline was filtered out. The crystalline was dried and analyzed with powder X-ray diffraction and Fourier transform infrared spectrum.

[4] = Long term storage stability by powder X-ray diffraction; type: physicochemical; details: room temperature for 1 year without any humidity controlling
Description: as §1, §2
Long term storage stability can be found in both crystalline polymorph A and crystalline polymorph B of acetyl-glycine-beta-alanine. The powder X-ray diffraction pattern of the crystalline polymorph A and crystalline polymorph B are shown as FIG. 1 and FIG. 2, wherein the crystalline polymorph A and crystalline polymorph B were stored at room temperature for 1 year without any humidity controlling.

[5] = tested on: IL-6; assay: In vitro anti-inflammation study, IL-6 level after UVB exposure; type: cell-based; details: human epidermal keratinocytes after exposure on UVB light
[6] = tested on: age spot; assay: In vivo human study, spot-brightening; details: after 14 days
[7] = taught in U.S. patent application Ser. No. 13/128,446; cited from earlier work
[8] = tested on: tissue model of the human epidermis prepared from cultured human keratinocytes and melanocytes; assay: Ex vivo whitening test in tissue model of the human epidermis; type: cell-based; details: 2% of acetyl-glycine-beta-alanine, 9 day
[9] = tested on: IL8; assay: In vitro anti-inflammation study, IL8 level after UVB exposure; type: cell-based; details: human epidermal keratinocytes after exposure on UVB light
[10] = tested on: melanin formation; details: taught in U.S. patent application Ser. No. 13/128,446; cited from earlier work
[11] = Ethanol/water: 95/5 (weight ratio)
[12] = Isopropanol/water: 3/1 (weight ratio)

Structure (SMILES)	thermal stability (powder X-ray diffraction pattern) [1]	Solubility [2, 11]	Solubility [2, 12]	Solubility ([2]; Methanol)	Solubility ([2]; Water)	thermodynamic stability (from solubility results) ([2]; concluded from lower solubility in various solvents)	crystalline form obtained after slurry equilibrium [3]	long term storage stability (powder X-ray diffraction pattern) [4]	IL-6 level [5]	age spot reduction (spot-brightening) [6]	color stability in the cosmetic formulation [7]	existing melanin level (whitening efficacy) [8]	IL8 level [9]	inhibiting melanin formation [10]
CC(=O)NCC(=O)NCCC(=O)O [crystalline polymorph A, acetyl-glycine-beta-alanine]	still not changed	18.4 mg/g	62.3 mg/g	26.5 mg/g	177.0 mg/g	thermodynamically stable	the obtained crystalline was crystalline polymorph A	not changed	–	–	–	–	–	–
CC(=O)NCC(=O)NCCC(=O)O [acetyl-glycine-beta-alanine]	–	–	–	–	–	–	–	–	reduced	51.67%	good color stability	−30%	reduced	capable of inhibiting melanin formation
CC(=O)NCC(=O)NCCC(=O)O [crystalline polymorph B, acetyl-glycine-beta-alanine]	changed	23.9 mg/g	76.4 mg/g	32.4 mg/g	223.2 mg/g	–	–	not changed	–	–	–	–	–	–
